Results: article PMC4992173, “Divergent synthesis and identification of the cellular targets of deoxyelephantopins” (Nature Communications, 2016)

Test system: proteins enriched from MCF7 cells by probe 24c
Assay: SILAC competitive profiling with probe 24c in MCF7 lysates, proteome-wide
Assay type: binding, human
Settings: 20 μM deoxyelephantopin, 10 μM 24c, SILAC ratio<0.30
Excerpt: In our efforts to determine the direct molecular targets of deoxyelephantopin we first performed a gel-based competitive in situ proteomic profiling assay[41] […] While the greater conformational flexibility of probe 24c could potentially lead to more promiscuous target engagement relatively to deoxyelephantopin, it was favoured based on the fact that an alkyne moiety appended to the rigid scaffold of deoxyelephantopin may hinder some of its interactions. MCF7 cells were pretreated with various concentrations of deoxyelephantopin for 4 h, harvested, lysed and the lysates were treated with the fluorogenic probe 24c-Cy3 (10 μM; Supplementary Fig. 10). […] Furthermore, cells were pretreated with 20 μM concentration of deoxyelephantopin or 24c and the proteomic profiles were compared (Fig. 6b, Supplementary Fig. 11). Multiple bands were detected that were equally competed by both DEP and 24c, thus again confirming that 24c can be used as an acceptable clickable analogue of deoxyelephantopin in pulldown assays. Having established the optimal labelling conditions by SDS–PAGE, we next carried out a mass spectrometry-based competitive profiling assay[42] coupled with the method of stable isotope labelling of amino acids in culture (SILAC)[43]. […]
visualization were performed as described above. Images were quantified with ImageJ and kinetics values were calculated using GraphPad Prism (V6.03). […]

In the case of `C=C(C)C(=O)O[C@H]1CC2=C[C@@H](C/C(C)=C/[C@H]3OC(=O)C(=C)[C@H]13)OC2=O` [deoxyelephantopin], the “competition of probe 24c labelling (11 proteins)” value is reported as over 70%.
